Measurements as given in US7880007B2, “Bicyclic substituted phenyl piperidine modulators of muscarinic receptors” (Vertex Pharmaceuticals Incorporated, priority 2004, dated 2011).

What was measured:
Assay type in all cases: cell-based
[1] = molecular target: T1, M3 muscarinic receptor (Homo sapiens, UniProt P20309); experiment: Functional mobilization of intracellular calcium (FLIPR), M3-CHO cells; details: for Emax: 100% efficacy is the maximum response obtained with the Carbachol control; for M3 Activity: M3-CHO cells, calcium mobilization (FLIPR)
T1 construct: expressed in transfected cells; host or cells: CHO (M3-CHO)
T1 sequence (P20309 whole entry): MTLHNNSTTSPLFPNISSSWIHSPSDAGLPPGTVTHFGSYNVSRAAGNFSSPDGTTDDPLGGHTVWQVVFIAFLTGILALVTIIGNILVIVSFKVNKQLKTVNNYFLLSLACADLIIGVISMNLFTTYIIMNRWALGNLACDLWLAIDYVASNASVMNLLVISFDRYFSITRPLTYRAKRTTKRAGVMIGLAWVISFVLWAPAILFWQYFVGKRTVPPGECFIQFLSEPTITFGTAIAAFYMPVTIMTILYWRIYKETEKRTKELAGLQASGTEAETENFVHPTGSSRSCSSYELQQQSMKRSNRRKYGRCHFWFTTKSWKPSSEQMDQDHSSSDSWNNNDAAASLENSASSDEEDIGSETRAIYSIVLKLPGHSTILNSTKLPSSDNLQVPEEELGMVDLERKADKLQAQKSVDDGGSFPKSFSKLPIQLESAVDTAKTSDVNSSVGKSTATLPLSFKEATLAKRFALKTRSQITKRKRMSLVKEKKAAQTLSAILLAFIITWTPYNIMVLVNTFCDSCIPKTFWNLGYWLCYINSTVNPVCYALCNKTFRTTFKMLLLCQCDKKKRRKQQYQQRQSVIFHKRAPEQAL
Method in brief: (§1)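 FLIPR fluorescence (ex 488, em 540 nm) recorded 60 sec after compound addition to dye-loaded CHO cells. Agonist mode: compound alone. Antagonist mode: 15 min compound pre-incubation, then carbachol at EC80, or co-application. Efficacy expressed as % of maximal carbachol response.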

[2] = molecular target: T2, M1 muscarinic receptor (Homo sapiens, UniProt P11229); experiment: Functional mobilization of intracellular calcium (FLIPR), M1-CHO cells; details: for Emax: 100% efficacy is the maximum response obtained with the Carbachol control; for M1 Activity: M1-CHO cells, calcium mobilization (FLIPR)
T2 construct: expressed in transfected cells; host or cells: CHO (M1-CHO)
T2 sequence (P11229 1-460): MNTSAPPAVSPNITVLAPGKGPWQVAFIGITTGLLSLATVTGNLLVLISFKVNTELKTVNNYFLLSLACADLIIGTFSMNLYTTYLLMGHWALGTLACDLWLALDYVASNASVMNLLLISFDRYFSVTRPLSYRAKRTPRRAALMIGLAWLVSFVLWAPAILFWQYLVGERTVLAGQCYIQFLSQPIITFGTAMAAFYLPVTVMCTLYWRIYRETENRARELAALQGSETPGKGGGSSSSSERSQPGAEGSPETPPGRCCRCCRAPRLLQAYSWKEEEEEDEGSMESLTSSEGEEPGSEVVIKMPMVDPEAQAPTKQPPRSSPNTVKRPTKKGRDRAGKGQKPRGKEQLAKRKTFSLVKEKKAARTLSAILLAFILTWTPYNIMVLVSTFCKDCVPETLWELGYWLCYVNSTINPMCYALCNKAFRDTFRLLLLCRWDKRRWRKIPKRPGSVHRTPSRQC
Method in brief: as §1

[3] = molecular target: T3, M2 muscarinic receptor (Homo sapiens, UniProt P08172); experiment: Functional mobilization of intracellular calcium (FLIPR), M2-CHO cells; details: for Emax: 100% efficacy is the maximum response obtained with the Carbachol control; for M2 Activity: M2-CHO cells, calcium mobilization (FLIPR)
T3 construct: expressed in transfected cells; host or cells: CHO (M2-CHO)
T3 sequence (P08172 1-466): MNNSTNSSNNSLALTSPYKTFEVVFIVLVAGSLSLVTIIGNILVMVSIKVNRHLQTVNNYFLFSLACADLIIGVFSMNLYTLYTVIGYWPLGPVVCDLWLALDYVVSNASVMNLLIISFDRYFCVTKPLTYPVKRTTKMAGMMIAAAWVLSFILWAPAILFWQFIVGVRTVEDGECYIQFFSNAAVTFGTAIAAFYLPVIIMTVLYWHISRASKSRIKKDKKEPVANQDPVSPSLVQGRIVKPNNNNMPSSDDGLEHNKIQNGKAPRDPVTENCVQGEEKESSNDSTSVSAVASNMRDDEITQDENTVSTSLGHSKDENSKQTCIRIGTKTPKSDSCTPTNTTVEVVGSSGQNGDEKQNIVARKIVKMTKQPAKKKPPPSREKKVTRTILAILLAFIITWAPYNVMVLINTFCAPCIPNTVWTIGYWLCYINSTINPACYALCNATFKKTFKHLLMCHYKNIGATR
Method in brief: as §1

[4] = molecular target: T4, M4 muscarinic receptor (Homo sapiens, UniProt P08173); experiment: Functional mobilization of intracellular calcium (FLIPR), M4-CHO cells; details: for Emax: 100% efficacy is the maximum response obtained with the Carbachol control; for M4 Activity: M4-CHO cells, calcium mobilization (FLIPR)
T4 construct: expressed in transfected cells; host or cells: CHO (M4-CHO)
T4 sequence (P08173 1-479): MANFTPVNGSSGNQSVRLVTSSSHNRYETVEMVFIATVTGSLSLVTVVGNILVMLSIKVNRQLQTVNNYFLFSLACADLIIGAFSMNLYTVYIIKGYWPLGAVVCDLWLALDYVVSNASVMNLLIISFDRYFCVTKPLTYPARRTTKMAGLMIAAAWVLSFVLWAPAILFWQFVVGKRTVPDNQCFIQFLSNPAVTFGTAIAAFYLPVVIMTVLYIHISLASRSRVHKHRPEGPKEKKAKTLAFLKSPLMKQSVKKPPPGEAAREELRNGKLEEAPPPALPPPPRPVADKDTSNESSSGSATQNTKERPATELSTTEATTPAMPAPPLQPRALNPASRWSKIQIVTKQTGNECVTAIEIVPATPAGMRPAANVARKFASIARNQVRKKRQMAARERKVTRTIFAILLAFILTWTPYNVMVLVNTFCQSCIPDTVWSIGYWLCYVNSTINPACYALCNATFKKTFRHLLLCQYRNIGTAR
Method in brief: as §1

Row | Emax [1] | Emax [2] | Emax [3] | Emax [4] | Structure (SMILES) | M3 Activity [1] | M1 Activity [2] | M2 Activity [3] | M4 Activity [4]
1 | < 25% | 25 to 100% | < 25% | 25 to 100% | COc1ccc(-c2ccc(C(C)(C)C#N)cc2)cc1C1CCN(C2C[C@H]3CC[C@H]2C3)CC1 (stereo partly shown) [Compound 403] | + (activity was measured to be greater than 5.0 μM) | + (activity was measured to be greater than 5.0 μM) | + (activity was measured to be greater than 5.0 μM) | ++ (activity was measured to be from 1.0 μM to 5.0 μM)
2 | < 25% | 25 to 100% | < 25% | 25 to 100% | C=Cc1ccc(OC)c(C2CCN([C@@H]3C[C@H]4CC[C@H]3C4)CC2)c1 [Compound 404] | + (activity was measured to be greater than 5.0 μM) | ++ (activity was measured to be from 1.0 μM to 5.0 μM) | + (activity was measured to be greater than 5.0 μM) | +++ (activity was measured to be less than 1.0 μM)
3 | < 25% | < 25% | < 25% | 25 to 100% | COc1ccccc1C1CCN(C2CCC(OC(=O)c3ccccc3)CC2)CC1 (stereo not shown) [Compound 410] | + (activity was measured to be greater than 5.0 μM) | + (activity was measured to be greater than 5.0 μM) | + (activity was measured to be greater than 5.0 μM) | ++ (activity was measured to be from 1.0 μM to 5.0 μM)
4 | < 25% | < 25% | < 25% | 25 to 100% | N#Cc1ccc(C2CCN(C3CCOCC3)CC2)cc1 [Compound 415] | + (activity was measured to be greater than 5.0 μM) | + (activity was measured to be greater than 5.0 μM) | + (activity was measured to be greater than 5.0 μM) | + (activity was measured to be greater than 5.0 μM)
5 | 25 to 100% | 25 to 100% | 25 to 100% | > 100% | CCON=C1CCC(N2CCC(c3cc(Cl)ccc3OC)CC2)CC1 (stereo not shown) [Compound 417, 4-(4-(5-chloro-2-methoxyphenyl)piperidin-1-yl)cyclohexanone O-ethyl oxime] | + (activity was measured to be greater than 5.0 μM) | +++ (activity was measured to be less than 1.0 μM) | +++ (activity was measured to be less than 1.0 μM) | +++ (activity was measured to be less than 1.0 μM)

The remaining lines, values behind:

Row | Structure (SMILES) | Emax [1] | Emax [2] | Emax [3] | Emax [4] | M3 Activity [1] | M1 Activity [2] | M2 Activity [3] | M4 Activity [4]
6 | COc1cccc(-c2ccccc2C2CCN([C@H]3C[C@H]4CC[C@H]3C4)CC2)c1OC [Compound 402] | < 25% | < 25% | < 25% | 25 to 100% | + (activity was measured to be greater than 5.0 μM) | + (activity was measured to be greater than 5.0 μM) | + (activity was measured to be greater than 5.0 μM) | ++ (activity was measured to be from 1.0 μM to 5.0 μM)
7 | CCOC(=O)N1CCC(CN2CCC(c3ccccc3C(F)(F)F)CC2)CC1 [Compound 405] | < 25% | 25 to 100% | 25 to 100% | > 100% | + (activity was measured to be greater than 5.0 μM) | +++ (activity was measured to be less than 1.0 μM) | ++ (activity was measured to be from 1.0 μM to 5.0 μM) | +++ (activity was measured to be less than 1.0 μM)
8 | CCOC(=O)N1C2CCC1CC(N1CCC(c3cc(Cl)ccc3OC)CC1)C2 (stereo not shown) [Compound 406] | 25 to 100% | 25 to 100% | 25 to 100% | 25 to 100% | + (activity was measured to be greater than 5.0 μM) | +++ (activity was measured to be less than 1.0 μM) | +++ (activity was measured to be less than 1.0 μM) | +++ (activity was measured to be less than 1.0 μM)
9 | COc1ccc(-c2ccc(C(N)=O)cc2)cc1C1CCN([C@H]2C[C@H]3CC[C@H]2C3)CC1 [Compound 407] | < 25% | < 25% | < 25% | 25 to 100% | + (activity was measured to be greater than 5.0 μM) | + (activity was measured to be greater than 5.0 μM) | + (activity was measured to be greater than 5.0 μM) | +++ (activity was measured to be less than 1.0 μM)
10 | COc1ccccc1C1CCN(C2C3CC4CC(C3)CC2C4)CC1 (stereo not shown) [Compound 408] | < 25% | 25 to 100% | < 25% | 25 to 100% | + (activity was measured to be greater than 5.0 μM) | + (activity was measured to be greater than 5.0 μM) | + (activity was measured to be greater than 5.0 μM) | +++ (activity was measured to be less than 1.0 μM)
11 | COc1ccc(Cl)cc1C1(F)CCN(C2CCCCC2)CC1 [Compound 409] | < 25% | 25 to 100% | 25 to 100% | 25 to 100% | + (activity was measured to be greater than 5.0 μM) | + (activity was measured to be greater than 5.0 μM) | + (activity was measured to be greater than 5.0 μM) | ++ (activity was measured to be from 1.0 μM to 5.0 μM)
12 | CCOC(=O)N1CCC(CN2CCC(c3cc(-c4ccc(S(=O)(=O)N5CCCC5)cc4)ccc3OC)CC2)CC1 [Compound 411] | < 25% | 25 to 100% | < 25% | < 25% | + (activity was measured to be greater than 5.0 μM) | +++ (activity was measured to be less than 1.0 μM) | + (activity was measured to be greater than 5.0 μM) | +++ (activity was measured to be less than 1.0 μM)
13 | COc1ccc(-c2ccsc2)cc1C1CCN([C@@H]2C[C@H]3CC[C@H]2C3)CC1 [Compound 414] | < 25% | < 25% | < 25% | 25 to 100% | + (activity was measured to be greater than 5.0 μM) | + (activity was measured to be greater than 5.0 μM) | + (activity was measured to be greater than 5.0 μM) | ++ (activity was measured to be from 1.0 μM to 5.0 μM)
14 | COc1ccc(C(=O)c2ccoc2)cc1C1CCN([C@@H]2C[C@H]3CC[C@H]2C3)CC1 [Compound 416] | < 25% | < 25% | < 25% | 25 to 100% | + (activity was measured to be greater than 5.0 μM) | + (activity was measured to be greater than 5.0 μM) | + (activity was measured to be greater than 5.0 μM) | ++ (activity was measured to be from 1.0 μM to 5.0 μM)
